Measured values: patent US20250115654A1, “PHARMACEUTICAL COMPOSITION OF GLP-1 RECEPTOR AND GIP RECEPTOR DUAL AGONIST, AND USE THEREOF” (FUJIAN SHENGDI PHARMACEUTICAL CO., LTD., priority 2021, published 2025)
Numbered stars: 1 amine (or outer) side, 2 acyl side, 3 side chain; on linkers, the order of the positions; unused ones are H or OH. Square brackets hold non-standard residues; d marks the D form. Side chains are listed from the residue outwards. Peptide text beside a SMILES is read from it. * marks the point of attachment. C20 diacid = O=C(O)CCCCCCCCCCCCCCCCCCC(=O)*; γGlu = O=C(O)[C@H](CCC(=O)[*:2])N[*:1]; AEEA = NCCOCCOCC(=O)O; Aib = CC(C)(N)C(=O)O

System: DIO mice
Assay: Food intake of DIO (diet-induced obesity) mice
Format: in vivo, C57BL/6 mice
Protocol: High-fat food-induced-obesity male C57BL/6 mice (weighing 35-55 g, aged 10-12 weeks, purchased from Shanghai Jiesijie Laboratory Animal Co., Ltd.) were tested. […] According to the experimental design, the body weight of each mouse was measured and recorded on day 0, day 3, day 6, and so on to day 27, the average body weight of each group of mice was calculated, and body weight change curves were plotted by taking the body weight on the first day as the standard. At the end, the fat and other visceral organs of each part of the mice were taken out and weighed, and the viscera/brain ratio for fat in each part of each mouse was calculated. The effect of the drug on the fat was determined by comparing the change in the viscera/brain ratio for fat of different parts of each group of mice.
The food intake of mice in each group was measured daily during the experiment.

Q: Which results are given for CC[C@H](C)[C@H](NC(=O)[C@H](CCCCN)NC(=O)[C@H](CCC(=O)O)NC(=O)[C@H](CCCCNC(=O)COCCOCCNC(=O)COCCOCCNC(=O)CC[C@H](NC(=O)CCCCCCCCCCCCCCCCCCC(=O)O)C(=O)O)NC(=O)[C@H](Cc1ccc(O)cc1)NC(=O)[C@@H](NC(=O)[C@H](CO)NC(=O)[C@H](Cc1ccc(O)cc1)NC(=O)[C@H](CC(=O)O)NC(=O)[C@H](CO)NC(=O)[C@@H](NC(=O)[C@H](Cc1ccccc1)NC(=O)[C@@H](NC(=O)CNC(=O)[C@H](CCC(=O)O)NC(=O)C(C)(C)NC(=O)[C@@H](N)Cc1ccc(O)cc1)[C@@H](C)O)[C@@H](C)O)[C@@H](C)CC)C(=O)N[C@@H](C)C(=O)N[C@@H](C)C(=O)N[C@@H](CCC(N)=O)C(=O)N[C@@H](CCC(=O)O)C(=O)N[C@@H](Cc1ccccc1)C(=O)N[C@H](C(=O)N[C@@H](CC(N)=O)C(=O)N[C@@H](Cc1c[nH]c2ccccc12)C(=O)N[C@@H](CC(C)C)C(=O)N[C@@H](CC(C)C)C(=O)N[C@@H](C)C(=O)NCC(=O)NCC(=O)N1CCC[C@H]1C(=O)N[C@@H](CO)C(=O)N[C@@H](CO)C(=O)NCC(=O)N[C@@H](C)C(=O)N1CCC[C@H]1C(=O)N1CCC[C@H]1C(=O)N1CCC[C@H]1C(=O)N[C@@H](CO)C(N)=O)C(C)C [Compound 18#] (H-Y[Aib]EGTFTSDYSIYK([AEEA-AEEA-γGlu-C20 diacid])EKIAAQEFVNWLLAGGPSSGAPPPS-NH2)?
A: cumulative food intake (10 nmol/kg, 28 days after the administration): 46.8 g; daily food intake ration (10 nmol/kg, day 1 after administration): 0.3 ± 0.2 g; daily food intake ration (10 nmol/kg, day 1 after administration, listed as 18#): 0.3 g; daily food intake ration (10 nmol/kg, day 2 after administration): 0.6 ± 0.6 g; daily food intake ration (10 nmol/kg, day 3 after administration): 1.1 ± 0.7 g; daily food intake ration (10 nmol/kg, day 4 after administration): 0.7 ± 0.5 g; daily food intake ration (10 nmol/kg, day 5 after administration): 1.1 ± 0.5 g; daily food intake ration (10 nmol/kg, day 6 after administration): 1.5 ± 0.8 g; daily food intake ration (10 nmol/kg, day 7 after administration): 0.8 ± 0.4 g; daily food intake ration (10 nmol/kg, day 8 after administration): 1.1 ± 0.7 g; daily food intake ration (10 nmol/kg, day 9 after administration): 2 ± 0.6 g; daily food intake ration (10 nmol/kg, day 10 after administration): 0.9 ± 0.4 g; daily food intake ration (10 nmol/kg, day 11 after administration): 1.8 ± 0.8 g; daily food intake ration (10 nmol/kg, day 12 after administration): 2.4 ± 0.6 g; daily food intake ration (10 nmol/kg, day 13 after administration): 0.9 ± 0.4 g; daily food intake ration (10 nmol/kg, day 14 after administration): 1.7 ± 0.7 g; daily food intake ration (10 nmol/kg, day 15 after administration): 3 ± 0.9 g; daily food intake ration (10 nmol/kg, day 16 after administration): 1.2 ± 1 g; daily food intake ration (10 nmol/kg, day 17 after administration): 2.1 ± 0.9 g; daily food intake ration (10 nmol/kg, day 18 after administration): 2.9 ± 0.8 g; daily food intake ration (10 nmol/kg, day 19 after administration): 1.3 ± 0.5 g; daily food intake ration (10 nmol/kg, day 20 after administration): 2 ± 0.5 g; daily food intake ration (10 nmol/kg, day 21 after administration): 3.2 ± 0.6 g; daily food intake ration (10 nmol/kg, day 22 after administration): 1 ± 0.4 g; daily food intake ration (10 nmol/kg, day 23 after administration): 2.3 ± 0.5 g; daily food intake ration (10 nmol/kg, day 24 after administration): 2.5 ± 0.6 g; daily food intake ration (10 nmol/kg, day 25 after administration): 1.6 ± 1.2 g; daily food intake ration (10 nmol/kg, day 26 after administration): 2.2 ± 0.8 g; daily food intake ration (10 nmol/kg, day 27 after administration): 3.6 ± 1^ g; daily food intake ration (10 nmol/kg, day 28 after administration): 1 ± 0.5 g; cumulative food intake (10 nmol/kg, within 5 days after the administration): 3.9 g; cumulative food intake (100 nmol/kg, 28 days after the administration): 36.7 g; daily food intake ration (100 nmol/kg, day 1 after administration): 0.2 ± 0.1 g; daily food intake ration (100 nmol/kg, day 1 after administration, listed as 18#): 0.2 g; daily food intake ration (100 nmol/kg, day 2 after administration): 0.1 ± 0.1 g; daily food intake ration (100 nmol/kg, day 3 after administration): 0.4 ± 0.1 g; daily food intake ration (100 nmol/kg, day 4 after administration): 0.4 ± 0.2 g; daily food intake ration (100 nmol/kg, day 5 after administration): 0.6 ± 0.2 g; daily food intake ration (100 nmol/kg, day 6 after administration): 0.7 ± 0.3 g; daily food intake ration (100 nmol/kg, day 7 after administration): 0.5 ± 0.2 g; daily food intake ration (100 nmol/kg, day 8 after administration): 0.7 ± 0.5 g; daily food intake ration (100 nmol/kg, day 9 after administration): 0.9 ± 0.6 g; daily food intake ration (100 nmol/kg, day 10 after administration): 0.9 ± 0.6 g; daily food intake ration (100 nmol/kg, day 11 after administration): 1.1 ± 0.5 g; daily food intake ration (100 nmol/kg, day 12 after administration): 2 ± 1 g; daily food intake ration (100 nmol/kg, day 13 after administration): 1.3 ± 0.7 g; daily food intake ration (100 nmol/kg, day 14 after administration): 1.7 ± 0.5 g; daily food intake ration (100 nmol/kg, day 15 after administration): 2 ± 0.4 g; daily food intake ration (100 nmol/kg, day 16 after administration): 1 ± 0.3 g; daily food intake ration (100 nmol/kg, day 17 after administration): 1.6 ± 0.3 g; daily food intake ration (100 nmol/kg, day 18 after administration): 2 ± 0.4 g; daily food intake ration (100 nmol/kg, day 19 after administration): 1.4 ± 0.2 g; daily food intake ration (100 nmol/kg, day 20 after administration): 1.8 ± 0.3 g; daily food intake ration (100 nmol/kg, day 21 after administration): 2.4 ± 0.3 g; daily food intake ration (100 nmol/kg, day 22 after administration): 1.4 ± 0.5 g; daily food intake ration (100 nmol/kg, day 23 after administration): 2.1 ± 0.5 g; daily food intake ration (100 nmol/kg, day 24 after administration): 2.3 ± 0.4 g; daily food intake ration (100 nmol/kg, day 25 after administration): 1.5 ± 0.3 g; daily food intake ration (100 nmol/kg, day 26 after administration): 1.6 ± 0.4 g; daily food intake ration (100 nmol/kg, day 27 after administration): 2.8 ± 0.3 g; daily food intake ration (100 nmol/kg, day 28 after administration): 1.2 ± 0.4 g; cumulative food intake (100 nmol/kg, within 5 days after the administration): 1.8 g
